Test results as given in patent US6503534B1, “Pharmaceutical compositions for prolonged peptide release and preparation method” (Societe de Conseils de Recherches et d'Applications …, priority 1998, dated 2003).

Experiment: Measurement of the specific surface area (B.E.T method)
Assay type: physicochemical
Conditions: lanreotide acetate recovered after flash freezing and lyophilization
Protocol: For all the following examples, the specific surface area of the peptide salt was determined by the so-called B.E.T method (absorption of a nitrogen monolayer on the active substance), a method well known to a person skilled in the art.

Row | SMILES | Specific surface area obtained [m^2/g]
1 | CC(C)[C@@H]1NC(=O)[C@H](CCCCN)NC(=O)[C@@H](Cc2c[nH]c3ccccc23)NC(=O)[C@H](Cc2ccc(O)cc2)NC(=O)[C@@H](NC(=O)[C@H](N)Cc2ccc3ccccc3c2)CSSC[C@@H](C(=O)N[C@H](C(N)=O)[C@@H](C)O)NC1=O [Example 3, lanreotide acetate] | 36
2 | CC(C)[C@@H]1NC(=O)[C@H](CCCCN)NC(=O)[C@@H](Cc2c[nH]c3ccccc23)NC(=O)[C@H](Cc2ccc(O)cc2)NC(=O)[C@@H](NC(=O)[C@H](N)Cc2ccc3ccccc3c2)CSSC[C@@H](C(=O)N[C@H](C(N)=O)[C@@H](C)O)NC1=O [Example 4, lanreotide acetate] | 43
